Data taken from patent US6803466B1, “HIV/FIV protease inhibitors having a small P3 residue” (The Scripps Research Institute, priority 1997, dated 2004).

Tests used:
[1] = molecular target: T1, HIV PR G48V (Human immunodeficiency virus type 1 group M subtype B, UniProt P03366, G548V); conditions: licensed drugs, literature; cited from earlier work
T1 construct: drug-resistant mutant HIV PRs G48V and V82F

[2] = molecular target: T2, HIV PR V82F (Human immunodeficiency virus type 1 group M subtype B, UniProt P03366, V582F); conditions: licensed drugs, literature; cited from earlier work
T2 construct: drug-resistant mutant HIV PRs G48V and V82F

[3] = molecular target: T3, FIV PR (Feline immunodeficiency virus, UniProt P16088, C122K/G43I/N93T); assay: Inhibition of FIV PR (Ki, IC50); assay type: biochemical
T3 construct: made in house; host or cells: E. coli BL21(DE3)
Description: The solution was mixed and incubated for 10 minutes at 37° C. and the reaction quenched by addition of 8M guanidine HCl solution containing 0.2 M sodium acetate at pH 4.2 (100 μL). The cleavage products and substrate were separated by reverse phase HPLC. Absorbance was measured at 215 nm, peak areas were determined and percent conversion to product was calculated using relative peak areas. […] IC50 was determined as the inhibitor concentration at 50% inhibition. […] ([S]=substrate concentration in nmol). The data used was generated similarly to that for Ki with the following modifications. The substrate concentrations used were 560, 448, 336, 224, 111 and 56 μM, in the absence of inhibitor.
(§1) Kinetic determinations for both HIV PR and FIV PRs were performed at 37° C. at pH 5.25 in duplicate using F-2000 fluorescence spectrophotometer (Hitachi).
(§2) For FIV PRs, the kinetic data were determined under the similar reaction conditions as for HIV PR.

[4] = test system: mutant FIV PRs (FIV(V59I), FIV(Q99V)); assay: Inhibition of mutant FIV PRs; assay type: biochemical, feline immunodeficiency virus
Description: The inhibitory effects of each inhibitor were evaluated against HIV and FIV PRs along with two mutant FIV PRs that contain amino acid substitutions corresponding to those in HIV PR at homologous sites.
as §2
Mutant FIV PRs were prepared that contained substitutions of HIV residues noted to be associated with drug resistance in HIV (16) at equivalent sites in the three dimensional structure.

[5] = molecular target: T4, HIV PR (Human immunodeficiency virus type 1 group M subtype B, UniProt P03366, Q507K); assay: Inhibition of HIV PR (Ki, IC50), fluorogenic substrate; assay type: biochemical
T4 construct: initiator Met plus the eight Pol residues preceding PR (N-terminal extension of the expressed precursor) (N); made in house; host or cells: E. coli BL21.DE3, pLysS
Description: The solution was mixed and incubated over 5 minutes during which time the rate of substrate cleavage was monitored by continuously recording the change in fluorescence of the assay solution. An excitation filter of 325 nm, and an emission filter of 420 nm were used.
Determination of Ki for HIV protease was performed similarly with the following modifications. The substrate concentrations used were 57, 43, 28 and 14 μM. All other concentrations were as above. The curve fit for the data was determined and the subsequent Ki derived using a computer program based on the equation of Morrison et. al. BioChim. Biophys. ACTA 1969,185, 269, for tight binding inhibitors.
as §1
For HIV PR, the KM and Vmax values for the fluorogenic peptide substrate 2-aminobenzoyl (Abz)-Thr-Ile-Nle-Phe-(p-NO2)-Gln-Arg-NH2 (SEQ ID NO: 3) Toth et al Int. J. Peptide Res. 36, 544-550 were determined by measuring the initial rate of hydrolysis at different substrate concentrations (5.0, 7.5, 10, 20, 35, 50, 100, and 200 μM) by monitoring the change in fluorescence at an excitation wavelength of 325 nm and an emission wavelength of 420 nm, and fitting the obtained data to the Michaelis-Menten equation using the Grafit program (version 3.0, Erithacus Software Ltd., UK). Assays were run in 0.1 M MES buffer, containing 5% (v/v) glycerol, and 5% (v/v) DMSO (200 μl final volume). The enzyme concentration (30 μg/ml) which gave ideal progress curve was used for assays, but the dimeric active HIV PR concentration was not accurately determined. […] The curve fit the data was determined, and the subsequent Ki was derived using the Grafit program.

[6] = test system: FIV-PPR in feline T-cells (104-C1); assay: Ex vivo inhibitor analysis against FIV, pelletable reverse transcriptase in culture supernatant; assay type: cell-based, feline immunodeficiency virus
Description: For FIV, the assays were performed in FIV-infected feline T-cells which were cultured in the presence of compound 1200 at different concentrations over the course of 1 month. Each data in FIG. 14 represents the amount of pelletable FIV reverse transcriptase in the culture supernatant. […] After one month, the drug-treated cultures were split and replated with and without compound 1200.
The lymphocytic cell line 104-C1 (provided by C. Grant) was used as the target for infection. Cells were cultured in RPMI-1640 media supplemented with 10% FBS, 200 μM L-Glutamine, 1×MEM-Vitamins, 100 μM Sodium Pyruvate, 1×Non-Essential Amino Acids, 5.5×10−5M b-ME, 50 μg/ml Gentamicin, 50 U/ml human recombinant Interleukin-2 (provided by Hoffmann-LaRoche) and 7.5 μg/ml Concanavalin-A. For inhibitor assessment, 5×10^6 cells were infected with FIV-PPR (4×105 RT units) in 1 mL culture for 2 hr at 37° C. […] The cells were then washed with Hanks-buffered saline solution (HBSS) and resuspended in 10 ml of complete medium. The compound 1200 (10 mg/mL in DMSO) was then added to final concentrations of 0.1, 0.5, 1, and 5 μg/ml in duplicate. The cells were then incubated at 37° C. The culture supernatants were monitored for the presence of pelletable reverse transcriptase activity at weekly intervals, as follows. Cell-free culture supernatants (4 ml) were centrifuged at 60K for 30 min and the pellets were resuspended in 100 μl of lysis buffer containing 40 mM TrisHCl (pH 8.1), 360 mM NaCl, 20 mM DTT and 0.2% NP40. Twenty five μl of lysate was added to 25 μl of a mixture containing polyrA-pdT (Pharmacia, Piscataway, N.J.), MgCl2, and 3H-labeled deoxythymidine 5′-triphosphate (DuPont NEN, Boston, Mass.), and incubated for 1 hr at 37° C. The mixture was spotted on DE81 paper, air-dried, fixed in 0.1 M sodium pyrophosphate, washed three times in 0.3 M ammonium formate, and an additional time in 95% ethanol. The paper was then dried and counted on a scintillation counter.
Cells were split 1:5 after the second, third, and fourth time points and fresh inhibitor was added at the appropriate concentration at each of these intervals. The data were expressed as values +/−standard deviation of the mean.

[7] = molecular target: T3, FIV PR; conditions: relative to HIV PR; Slee et al.; cited from earlier work

SMILES | higher IC50 / decreased potency, G48V mutant compared to wild-type HIV PR [1] [fold] | higher IC50 / less sensitive, V82F mutant compared to wild-type HIV PR [2] [fold] | Ki [3] [µM] | Ki [5] [µM] | inhibition of FIV PR (in words) [3] | further results
CC(C)c1nc(CN(C)C(=O)N[C@H](C(=O)N[C@@H](Cc2ccccc2)C[C@H](O)[C@H](Cc2ccccc2)NC(=O)OCc2cncs2)C(C)C)cs1 [ABT-538] | 17 | 90 |  |  |  | 
Cc1c(O)cccc1C(=O)N[C@@H](CSc1ccccc1)[C@H](O)CN1C[C@H]2CCCC[C@H]2C[C@H]1C(=O)NC(C)(C)C [AG-1343] |  | 15 |  |  |  | 
CC(C)[C@H](NC(=O)[C@H](Cc1ccccc1)NC(=O)OCc1ccccc1)C(=O)N[C@@H](Cc1ccccc1)[C@@H](O)[C@H](O)[C@H](Cc1ccccc1)NC(=O)[C@@H](NC(=O)[C@H](Cc1ccccc1)NC(=O)OCc1ccccc1)C(C)C [Compound 10b] |  |  | 7 |  |  | lower potency than 1b against FIV PR ([3]; versus 1b): 170 fold; lower potency compared to 1100, FIV PR ([3]; versus 1100): 45 fold; Ki higher / potency lower than 1200, FIV PR ([3]; versus 1200): 170 fold; activity against mutant FIV PRs compared to wild type FIV PR (in words) [4]: very similar activities
CC(C)[C@H](NC(=O)[C@H](CO)NC(=O)OCc1ccccc1)C(=O)N[C@@H](Cc1ccccc1)[C@@H](O)[C@H](O)[C@H](Cc1ccccc1)NC(=O)[C@@H](NC(=O)[C@H](CO)NC(=O)OCc1ccccc1)C(C)C [Compound 12] |  |  | 0.032 | 0.00058 | effective inhibitors | inhibition of HIV PR (in words) [5]: effective inhibitors; higher potency against HIV PR compared to 1b ([5]; versus 1b): 3 fold; prevention of FIV infection in tissue culture (in words) [6]: not as effective as 1b
CC(C)(C)NC(=O)[C@@H]1CN(Cc2cccnc2)CCN1C[C@@H](O)C[C@@H](Cc1ccccc1)C(=O)N[C@H]1c2ccccc2C[C@H]1O [MK-639] |  | 7 |  |  |  | 
CC(C)(C)NC(=O)[C@@H]1C[C@@H]2CCCC[C@@H]2CN1C[C@@H](O)[C@H](Cc1ccccc1)NC(=O)[C@H](CC(N)=O)NC(=O)c1ccc2ccccc2n1 [RO31-8959, reference compound] | 27 |  | 76 | 0.0016 | total loss of potency | less efficient inhibitor of FIV PR, factor [7]: ≥ 100
